Laboratory results published in ChEMBL document CHEMBL6083220, “Chemically induced degradation of PRC2 complex by EZH2-Targeted PROTACs via a Ubiquitin-Proteasome pathway” (Bioorg Med Chem Lett, 2024).
Calls of active or inactive are those of the source. No cut-off for these calls is given here.

Assays:
[1] = Antiproliferative activity against human MINO cells by MTT assay; format: functional, cell-based
OCI-Ly7 = experiment: Antiproliferative activity against human OCILY7 cells by MTT assay; format: functional, cell-based
MINO [2] = experiment: Downregulation of EZH2 protein expression in human MINO cells at 5 uM incubated for 24 hrs by Western blotting assay; format: functional, cell-based
MINO [3] = experiment: Downregulation of SUZ12 protein expression in human MINO cells at 5 uM incubated for 24 hrs by Western blotting assay; format: functional, cell-based
MINO [4] = experiment: Downregulation of EED protein expression in human MINO cells at 5 uM incubated for 24 hrs by Western blotting assay; format: functional, cell-based
MINO [5] = experiment: Downregulation of RbAp48 protein expression in human MINO cells at 5 uM incubated for 24 hrs by Western blotting assay; format: functional, cell-based
MINO [6] = experiment: Downregulation of H3k27me3 protein expression in human MINO cells at 5 uM incubated for 24 hrs by Western blotting assay; format: functional, cell-based
[7] = Induction of cell cycle arrest in human MINO cells assessed as G0/G1 phase cells at 5 uM incubated for 24 hrs by propidium iodide staining based flow cytometry assay (reference value: 67.56%); format: functional
[8] = Induction of cell cycle arrest in human MINO cells assessed as G2/M phase cells at 5 uM incubated for 24 hrs by propidium iodide staining based flow cytometry assay (reference value: 7.26%); format: functional
[9] = Induction of cell cycle arrest in human MINO cells assessed as S phase cells at 5 uM incubated for 24 hrs by propidium iodide staining based flow cytometry assay (reference value: 25.19%); format: functional
[10] = Induction of apoptosis in human MINO cells assessed as viable cells at 5 uM incubated for 24 hrs by Annexin V-FITC/PI staining based flow cytometry assay (reference value: 89.93%); format: functional; details: read-out: Activity
[11] = Induction of apoptosis in human MINO cells assessed as early apoptotic cells at 5 uM incubated for 24 hrs by Annexin V-FITC/PI staining based flow cytometry assay (reference value: 1.04%); format: functional
[12] = Induction of apoptosis in human MINO cells assessed as late apoptotic cells at 5 uM incubated for 24 hrs by Annexin V-FITC/PI staining based flow cytometry assay (reference value: 8.29%); format: functional
[13] = Induction of apoptosis in human MINO cells assessed as necrotic cells at 5 uM incubated for 24 hrs by Annexin V-FITC/PI staining based flow cytometry assay (reference value: 0.74%); format: functional
MINO [14] = experiment: Induction of mitochondrial apoptosis pathway in human MINO cells assessed as upregulation of cytochrome C expression at 5 uM incubated for 24 hrs by Western blotting assay; format: functional, cell-based
MINO [15] = experiment: Induction of mitochondrial apoptosis pathway in human MINO cells assessed as upregulation of bax protein expression at 5 uM incubated for 24 hrs by Western blotting assay; format: functional, cell-based
MINO [16] = experiment: Induction of mitochondrial apoptosis pathway in human MINO cells assessed as upregulation of cleaved PARP expression at 5 uM incubated for 24 hrs by Western blotting assay; format: functional, cell-based
MINO [17] = experiment: Induction of mitochondrial apoptosis pathway in human MINO cells assessed as downregulation of bcl-2 expression at 5 uM incubated for 24 hrs by Western blotting assay; format: functional, cell-based
MINO [18] = experiment: Induction of mitochondrial apoptosis pathway in human MINO cells assessed as downregulation of procaspase-3 expression at 5 uM incubated for 24 hrs by Western blotting assay; format: functional, cell-based
MINO [19] = experiment: Induction of mitochondrial apoptosis pathway in human MINO cells assessed as downregulation of procaspase-9 expression at 5 uM incubated for 24 hrs by Western blotting assay; format: functional, cell-based
[20] = Half-life in ICR mouse at 2 mg/kg, iv; format: ADME, organism-based; details: in vivo
[21] = Tmax in ICR mouse at 2 mg/kg, iv; format: ADME, organism-based; details: in vivo
[22] = Cmax in ICR mouse at 2 mg/kg, iv; format: ADME, organism-based; details: in vivo
[23] = AUC(0 to t) in ICR mouse at 2 mg/kg, iv; format: ADME, organism-based; details: in vivo
[24] = AUC(0 to infinity) in ICR mouse at 2 mg/kg, iv; format: ADME, organism-based; details: in vivo
[25] = MRT(0 to t) in ICR mouse at 2 mg/kg, iv; format: ADME, organism-based; details: in vivo
[26] = MRT(0 to infinity) in ICR mouse at 2 mg/kg, iv; format: ADME, organism-based; details: in vivo
[27] = Initial plasma concentration in ICR mouse at 2 mg/kg, iv; format: ADME, organism-based
[28] = Volume of distribution at steady state in ICR mouse at 2 mg/kg, iv; format: ADME, organism-based; details: in vivo, read-out: Vdss
[29] = Apparent volume of distribution in ICR mouse at 2 mg/kg, iv; format: ADME, organism-based; details: in vivo, read-out: Vz
[30] = Clearance in ICR mouse at 2 mg/kg, iv; format: ADME, organism-based; details: in vivo
[31] = Bioavailability in ICR mouse at 2 mg/kg, iv; format: ADME, organism-based; details: in vivo
[32] = Half-life in ICR mouse at 10 mg/kg, po; format: ADME, organism-based; details: in vivo
[33] = Tmax in ICR mouse at 10 mg/kg, po; format: ADME, organism-based; details: in vivo
[34] = Cmax in ICR mouse at 10 mg/kg, po; format: ADME, organism-based; details: in vivo
[35] = AUC(0 to t) in ICR mouse at 10 mg/kg, po; format: ADME, organism-based; details: in vivo
[36] = AUC(0 to infinity) in ICR mouse at 10 mg/kg, po; format: ADME, organism-based; details: in vivo
[37] = MRT(0 to t) in ICR mouse at 10 mg/kg, po; format: ADME, organism-based; details: in vivo
[38] = MRT(0 to infinity) in ICR mouse at 10 mg/kg, po; format: ADME, organism-based; details: in vivo
[39] = target: Histone-lysine N-methyltransferase EZH2 (Homo sapiens) (UniProt Q15910); experiment: Binding affinity to EZH2 in human MINO cells assessed as increase in thermal stability at 5 uM at 5 to 10 degreeC incubated for 24 hrs by CETSA; format: cell-based
[40] = target: Polycomb protein EED (Homo sapiens) (UniProt O75530); experiment: Binding affinity to EED in human MINO cells assessed as increase in thermal stability at 5 uM at 5 to 10 degreeC incubated for 24 hrs by CETSA; format: cell-based
[41] = target: Polycomb protein SUZ12 (Homo sapiens) (UniProt Q15022); experiment: Binding affinity to SUZ12 in human MINO cells assessed as increase in thermal stability at 5 uM at 5 to 10 degreeC incubated for 24 hrs by CETSA; format: cell-based
MINO [42] = experiment: Binding affinity to RbAp48 in human MINO cells assessed as increase in thermal stability at 5 uM at 5 to 10 degreeC incubated for 24 hrs by CETSA; format: cell-based
MINO [43] = experiment: PROTAC activity at EZH2/E3 ligase in human MINO cells assessed as reduction in EZH2 protein level incubated for 24 hrs by Western blotting assay; format: cell-based; details: dose 0.02-20 µM
MINO [44] = experiment: PROTAC activity at EZH2/E3 ligase in human MINO cells assessed as reduction in EZH2 protein level at 1 to 2.5 uM incubated for 24 hrs by Western blotting assay; format: cell-based; details: dose 1-2.5 µM
MINO [45] = experiment: PROTAC activity at EZH2/E3 ligase in human MINO cells assessed as reduction in EZH2 protein level at 5 uM incubated for 24 hrs by Western blotting assay; format: cell-based; set-up: scale not given: the % may be the effect or the level left
[46] = Potency index, ratio of tazemetostat IC50 to test compound IC50 for antiproliferative activity against human MINO cells; format: functional

Sequence of Polycomb protein SUZ12 (Homo sapiens) (Q15022 whole entry): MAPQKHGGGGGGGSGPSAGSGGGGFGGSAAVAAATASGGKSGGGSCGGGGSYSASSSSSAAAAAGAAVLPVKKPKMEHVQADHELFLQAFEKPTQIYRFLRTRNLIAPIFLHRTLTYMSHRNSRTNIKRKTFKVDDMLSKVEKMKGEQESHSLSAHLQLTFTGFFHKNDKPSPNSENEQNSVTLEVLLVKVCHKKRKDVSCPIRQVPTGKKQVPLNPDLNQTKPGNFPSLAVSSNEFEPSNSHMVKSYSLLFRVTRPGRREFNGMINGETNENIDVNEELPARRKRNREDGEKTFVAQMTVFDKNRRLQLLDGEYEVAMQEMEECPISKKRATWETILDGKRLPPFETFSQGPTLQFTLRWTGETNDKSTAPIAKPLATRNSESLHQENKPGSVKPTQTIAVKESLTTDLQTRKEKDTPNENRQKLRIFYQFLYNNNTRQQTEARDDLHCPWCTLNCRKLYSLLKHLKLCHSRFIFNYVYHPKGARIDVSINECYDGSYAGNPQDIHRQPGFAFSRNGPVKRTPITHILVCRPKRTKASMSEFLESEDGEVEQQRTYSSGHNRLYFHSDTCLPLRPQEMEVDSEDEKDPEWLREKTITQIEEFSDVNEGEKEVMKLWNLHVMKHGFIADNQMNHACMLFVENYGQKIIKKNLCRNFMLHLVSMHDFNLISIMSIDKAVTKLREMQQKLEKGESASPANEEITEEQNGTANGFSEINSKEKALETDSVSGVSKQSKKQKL
Sequence of Polycomb protein EED (Homo sapiens) (O75530 2-441 limits assumed): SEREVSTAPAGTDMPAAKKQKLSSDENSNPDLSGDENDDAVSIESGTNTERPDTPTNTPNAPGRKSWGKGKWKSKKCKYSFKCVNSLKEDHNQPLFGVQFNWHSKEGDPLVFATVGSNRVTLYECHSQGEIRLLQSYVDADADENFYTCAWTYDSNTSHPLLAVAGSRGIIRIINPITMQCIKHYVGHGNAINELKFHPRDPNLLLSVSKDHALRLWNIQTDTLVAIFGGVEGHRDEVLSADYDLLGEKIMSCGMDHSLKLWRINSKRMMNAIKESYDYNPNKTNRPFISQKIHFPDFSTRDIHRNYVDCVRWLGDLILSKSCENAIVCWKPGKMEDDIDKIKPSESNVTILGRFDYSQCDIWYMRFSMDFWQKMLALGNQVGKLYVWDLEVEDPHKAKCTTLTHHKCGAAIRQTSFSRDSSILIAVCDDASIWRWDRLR
Sequence of Histone-lysine N-methyltransferase EZH2 (Homo sapiens) (Q15910 whole entry, looked up): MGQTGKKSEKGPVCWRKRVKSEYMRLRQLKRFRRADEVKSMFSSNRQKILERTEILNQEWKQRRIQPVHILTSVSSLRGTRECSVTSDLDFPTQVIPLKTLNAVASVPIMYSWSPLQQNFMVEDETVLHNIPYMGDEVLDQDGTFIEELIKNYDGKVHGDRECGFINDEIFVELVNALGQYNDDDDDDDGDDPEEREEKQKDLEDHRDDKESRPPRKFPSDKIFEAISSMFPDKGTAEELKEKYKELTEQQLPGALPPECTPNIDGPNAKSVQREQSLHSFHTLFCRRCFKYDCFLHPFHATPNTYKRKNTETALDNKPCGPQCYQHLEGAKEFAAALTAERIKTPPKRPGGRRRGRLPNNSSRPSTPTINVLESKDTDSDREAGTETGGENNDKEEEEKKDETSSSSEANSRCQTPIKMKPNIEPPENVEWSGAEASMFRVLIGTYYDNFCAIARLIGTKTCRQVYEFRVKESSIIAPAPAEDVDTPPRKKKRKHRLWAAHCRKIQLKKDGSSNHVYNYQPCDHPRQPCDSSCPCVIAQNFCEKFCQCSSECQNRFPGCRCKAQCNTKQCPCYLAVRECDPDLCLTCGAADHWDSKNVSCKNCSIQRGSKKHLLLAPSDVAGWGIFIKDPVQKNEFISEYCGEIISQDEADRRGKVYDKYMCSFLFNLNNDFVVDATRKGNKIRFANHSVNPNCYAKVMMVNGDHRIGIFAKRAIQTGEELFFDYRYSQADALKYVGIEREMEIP

CCN(c1cc(-c2ccc(CN3CCOCC3)cc2)cc(C(=O)NCc2c(C)cc(C)[nH]c2=O)c1C)C1CCOCC1 [TAZEMETOSTAT]
IC50 [1]: 1.07 µM | IC50 (OCI-Ly7): 1.19 µM | Activity (MINO [2]): inactive | Activity (MINO [3]): inactive | Activity (MINO [4]): inactive | Activity (MINO [5]): inactive | Activity (MINO [6]): Active; Limited Inhibition Observed | Activity [7]: 73.92% | Activity [8]: 7.74% | Activity [9]: 18.34% | viability at 5 µM [10]: 57.2% | Activity [11]: 0.38% | Activity [12]: 32.16% | Activity [13]: 10.27% | Activity (MINO [14]): Active; Activity Weaker Than Zj-20 | Activity (MINO [15]): Active; Activity Weaker Than Zj-20 | Activity (MINO [16]): Active; Activity Weaker Than Zj-20 | Activity (MINO [17]): Active; Activity Weaker Than Zj-20 | Activity (MINO [18]): Active; Activity Weaker Than Zj-20 | Activity (MINO [19]): Active; Activity Weaker Than Zj-20

CCN(c1cc(-c2ccc(CN3CCN(C(=O)CC4CCC(CNc5cccc6c5C(=O)N(C5CCC(=O)NC5=O)C6=O)CC4)CC3)cc2)cc(C(=O)NCc2c(C)cc(C)[nH]c2=O)c1C)C1CCOCC1 (centres undefined)
IC50 [1]: 0.005 µM | IC50 (OCI-Ly7): 0.15 µM | half-life [20]: 21.9 h | Tmax [21]: 0.42 h | Cmax [22]: 7.21 µg/mL | AUC(0-t) [23]: 98.4 µg·h/mL | AUC(0-inf) [24]: 190 µg·h/mL | MRT last [25]: 9.7 h | MRT inf [26]: 31.4 h | C0 [27]: 6.5 µg/mL | Vd [28]: 0.323 L/kg | Vd [29]: 0.329 L/kg | clearance [30]: 0.0115 L/h/kg | bioavailability [31]: 6.05% | half-life [32]: 11.7 h | Tmax [33]: 0.83 h | Cmax [34]: 2.98 µg/mL | AUC(0-t) [35]: 29.7 µg·h/mL | AUC(0-inf) [36]: 40.5 µg·h/mL | MRT last [37]: 8.87 h | MRT inf [38]: 17.6 h | Activity (MINO [2]): Active | Activity (MINO [3]): Active | Activity (MINO [4]): Active | Activity (MINO [5]): Active | Activity (MINO [6]): Active | Activity [39]: Active | Activity [40]: inactive | Activity [41]: inactive | Activity (MINO [42]): inactive | Activity (MINO [43]): Dose-dependent-effect | Activity (MINO [44]): Active; Significant And Potent Activity Observed | Activity (MINO [45]): 100% | Activity [7]: 79.47% | Activity [8]: 6.11% | Activity [9]: 14.41% | viability at 5 µM [10]: 35.6% | Activity [11]: 4.89% | Activity [12]: 57.55% | Activity [13]: 2% | Activity (MINO [14]): Active | Activity (MINO [15]): Active | Activity (MINO [16]): Active | Activity (MINO [17]): Active | Activity (MINO [18]): Active | Activity (MINO [19]): Active | Ratio IC50 [46]: 214

CCN(c1cc(-c2ccc(CN3CCN(C(=O)CCN4CC(CNc5cccc6c5C(=O)N(C5CCC(=O)NC5=O)C6=O)C4)CC3)cc2)cc(C(=O)NCc2c(C)cc(C)[nH]c2=O)c1C)C1CCOCC1 (centres undefined)
IC50 [1]: 0.51 µM | IC50 (OCI-Ly7): 0.17 µM

CCN(c1cc(-c2ccc(CN3CCN(C(=O)C4CCN(C5CCN(c6cccc7c6C(=O)N(C6CCC(=O)NC6=O)C7=O)CC5)CC4)CC3)cc2)cc(C(=O)NCc2c(C)cc(C)[nH]c2=O)c1C)C1CCOCC1 (centres undefined)
IC50 [1]: 0.98 µM | IC50 (OCI-Ly7): 4.05 µM

CCN(c1cc(-c2ccc(CN3CCN(C(=O)CN4CCC(Nc5cccc6c5C(=O)N(C5CCC(=O)NC5=O)C6=O)C4)CC3)cc2)cc(C(=O)NCc2c(C)cc(C)[nH]c2=O)c1C)C1CCOCC1 (centres undefined)
IC50 [1]: 0.66 µM | IC50 (OCI-Ly7): 0.15 µM

CCN(c1cc(-c2ccc(CN3CCN(CCC4CCC(CNc5cccc6c5C(=O)N(C5CCC(=O)NC5=O)C6=O)CC4)CC3)cc2)cc(C(=O)NCc2c(C)cc(C)[nH]c2=O)c1C)C1CCOCC1 (centres undefined)
IC50 [1]: 0.04 µM | IC50 (OCI-Ly7): 0.013 µM

CCN(c1cc(-c2ccc(CN3CCN(C(=O)Cc4ccc(CNc5cccc6c5C(=O)N(C5CCC(=O)NC5=O)C6=O)cc4)CC3)cc2)cc(C(=O)NCc2c(C)cc(C)[nH]c2=O)c1C)C1CCOCC1 (centres undefined)
IC50 [1]: 1.03 µM | IC50 (OCI-Ly7): 0.87 µM

CCN(c1cc(-c2ccc(CN3CCN(CC=C4CCC(CNc5cccc6c5C(=O)N(C5CCC(=O)NC5=O)C6=O)CC4)CC3)cc2)cc(C(=O)NCc2c(C)cc(C)[nH]c2=O)c1C)C1CCOCC1 (centres undefined)
IC50 [1]: 0.25 µM | IC50 (OCI-Ly7): 0.004 µM
